# Laboratory results published in a melting point compilation (Tetko et al.; mined from patent text by program, amines drawn as free bases though some values may be those of a salt).
row,Structure (SMILES),melting point [°C]
1,Cc1n[nH]c2cc(-c3nn(Cc4oc5ccccc5c(=O)c4-c4cccc(F)c4)c4ncnc(N)c34)ccc12,246 to 248
2,COc1cc2c(cc1OC)CCN(C(=O)N(C)O)CC2,95 to 96
3,O=CN1C(=O)[C@H]2N=C(Cc3ccccc3)O[C@H]21,90 to 92
4,O=C(NCc1ccc(F)cc1)c1cn(N2CCOCC2)c2ccc(CN3CCOCC3)cc2c1=O,165 to 167
5,CC(C)(C)c1cc(NC(=O)c2cccn2-c2ccc(N)cc2)cc(C(C)(C)C)c1O,218 to 219
6,CCC(=O)n1nc(-c2ccc(Cl)cc2)nc1C,108 to 109
7,O=C1CCC2(CC1)CCC(O)CC2,65 to 67
8,N#Cc1nn(-c2c(Cl)cc(C(F)(F)F)cc2Cl)c(N)c1-c1cccc2ccccc12,208
9,Cc1cc(Oc2cc(C(F)(F)F)ccn2)ccc1OCCNc1ncnc2scnc12,107 to 111
10,CCOC(=O)c1ccc(NCCOc2cccc3ccccc23)cc1,124 to 127
11,COc1ccc(C2Sc3c(ccc4ccccc34)N(CCN(C)C)C(=O)C2OC)cc1 (centres undefined),118 to 120
12,CSc1cnc2cc(-c3cccc(Cl)c3)sc2c1O,> 300
13,CCCCN(CCCC)CCCNC(=O)c1ccc2oc3ccc(C(=O)NCCCN(CCCC)CCCC)cc3c(=O)c2c1,89 to 92
14,O=C(CCCCCBr)c1cc2c3c(c1)CC(=O)N3CCC2,86 to 87
15,COc1ccc(/C=C/c2ccncc2[N+](=O)[O-])cc1OC1CCCC1,114 to 116
16,CCCCCCCCCCCCc1c(C(=O)OCC)[nH]c(C)c1C,70 to 71
17,Cc1cc(OC(F)(F)C(F)C(F)(F)F)ccc1NC(=O)c1cccc(I)c1 (centres undefined),188
18,COC1=C(OC)C(=O)C2=C(CC(CCCCCCCCOc3ccc(Cl)cc3)C2)C1=O,64 to 66
19,CCCc1cc(C(=O)OC)ccc1OCC(=O)CNc1cnn(C(C)C)c(=O)c1Cl,133
20,c1ccc(C[C@@H]2CN(C3=Nc4ccccc4Sc4ccccc43)CCN2)cc1,56 to 69
21,CC1(C)Cc2sccc2C(NC(N)=O)C1 (centres undefined),174 to 178
22,COc1ccc(C=Cc2cc(Cl)c(OC)c(OC)c2)cc1O,105 to 106
23,CCCCNC(=O)C(=O)Nc1ccc(OC)cc1[N+](=O)[O-],127 to 128
24,CCOCc1nc2c(N)nc3ccccc3c2n1CC1(C(N)=O)CC1,230 to 232
25,Cc1c(C)c2c(c(C)c1N)C(C)C(C)(N1CCN(C)CC1)O2 (centres undefined),76 to 77

row,Structure (SMILES),melting point [°C]
1,Cn1nc(C(F)(F)F)cc1Oc1ccnc(-c2ccc(F)cc2)n1,101 to 102
2,O=C(O)C(=O)c1ccc(O)c([N+](=O)[O-])c1,139 to 140
3,O=C(O)C(CC1CCCC1)c1cccc([N+](=O)[O-])c1 (centres undefined),95 to 99
4,COc1ccc(CNC(=O)c2cc([N+](=O)[O-])ccc2N[C@@H](CO)CCSC)cc1OC,150 to 152
5,O=C1CCc2cc(OCC(F)(F)C(F)(F)F)ccc21,52 to 54
6,CC(C)(C)OC(=O)NCC(COC(C(F)(F)F)(C(F)(F)F)C(F)(F)F)(COC(C(F)(F)F)(C(F)(F)F)C(F)(F)F)C(=O)O,128 to 130
7,"CC1CCC(C(C)C)C(OC(=O)N2CC3CC(C2)CN(C(=O)C2(O)NCCC2Oc2ccc(C#N)cc2)C3)C1 (single isomer, unassigned; (-))",111 to 112
8,"CCCCCC(CC(=O)O)c1ccc(OC)cc1OC (single isomer, unassigned; (+))",51 to 52
9,OCc1ccc(-c2ccc(-c3cn([C@H]4CN5CCC4CC5)nn3)o2)cc1,209
10,C=CCOC1OC(C(O)CO)C(OCc2ccccc2)C1O (centres undefined),84 to 85
11,CC(C)C(C(=O)O)n1nc(Br)c(Br)c1Br (centres undefined),92 to 95
12,CCOCOCCCc1ccc(C(=O)O)cc1C12CC3CC(CC(C3)C1)C2,115
13,COc1ccccc1OC1(Cl)C=NC(N2CCOCC2)=NC1Cl (centres undefined),180
14,O=C(C=Cc1ccccc1O)c1ccccc1,148 to 149
15,O=C1Nc2ccccc2C12COc1c(Cl)cc3c(c12)OCCO3 (centres undefined),255 to 257
16,CC(=O)Nc1cccc(NC(=O)Cc2ccc(-n3c(-c4cccnc4N)nc4ccc(C)nc43)cc2)c1,207 to 209
17,CSc1ccc(C2=NC[C@@H](O)[C@H](c3ccccc3)O2)cc1 (racemic),130
18,C=CCN1C2CCC1C1CCC2N1C(c1ccc(C(=O)N2CCCCC2)cc1)c1cccc(OC)c1 (centres undefined),134 to 136
19,COc1ccc(N2CCN(c3c(C)c(C)c4c(c3C)CC(C)(Cn3cccn3)O4)CC2)cc1 (centres undefined),117 to 120
20,CNCC[C@H]1CC[C@H](C(=O)O)CC1,212 to 214
21,CN([C@H]1CC[C@H](Nc2nccc(-n3nnc4ccccc43)n2)CC1)S(C)(=O)=O,250 to 252
22,O=S1(=O)c2cccc3cccc(c23)N1CCCN1CCN(c2ccccc2O)CC1,128
23,O=C(O)CCc1c(C=C2C(=O)Nc3ccc(Cl)cc32)[nH]c2c1CCCC2,370 to 384
24,O=c1[nH]c2nc3ccccc3n2c(=O)n1C1CCCCC1,335
